Laboratory results from PubChem BioAssay (NCI).
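96-well plates; 48 h exposure; 5 concentrations. Endpoints by linear interpolation between flanking doses. Not reached: highest tested concentration assigned. GI50 is the concentration that inhibits growth by half. The concentration for full growth arrest is given as TGI.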

Columns and labels:
Experiment in all cases: DTP human tumour cell line panel, 48 h
EKVX NSCLC = tested on: EKVX NSCLC
SNB-75 CNS = tested on: SNB-75 CNS
SNB-19 CNS = tested on: SNB-19 CNS
HOP-62 NSCLC = tested on: HOP-62 NSCLC
HCC-2998 colon = tested on: HCC-2998 colon
OVCAR-5 ovarian = tested on: OVCAR-5 ovarian
SF-539 CNS = tested on: SF-539 CNS
SR leukemia = tested on: SR leukemia
786-0 renal = tested on: 786-0 renal
MDA-MB-435 = tested on: MDA-MB-435

| SMILES | TGI (EKVX NSCLC) [µM] | TGI (SNB-75 CNS) [µM] | TGI (SNB-19 CNS) [µM] | TGI (HOP-62 NSCLC) [µM] | TGI (HCC-2998 colon) [µM] | TGI (OVCAR-5 ovarian) [µM] | TGI (SF-539 CNS) [µM] | TGI (SR leukemia) [µM] | TGI (786-0 renal) [µM] | GI50 (EKVX NSCLC) [µM] | GI50 (SNB-75 CNS) [µM] | GI50 (MDA-MB-435) [µM] | TGI (MDA-MB-435) [µM] | GI50 (SNB-19 CNS) [µM] | GI50 (HOP-62 NSCLC) [µM] | GI50 (HCC-2998 colon) [µM] | GI50 (OVCAR-5 ovarian) [µM] | GI50 (SF-539 CNS) [µM] | GI50 (786-0 renal) [µM] |
| --- | --- | --- | --- | --- | --- | --- | --- | --- | --- | --- | --- | --- | --- | --- | --- | --- | --- | --- | --- |
| c1ccc2c(c1)CCc1c(-c3ccncc3)n[nH]c1-2 | 75.5 | 77.7 | > 100 | > 100 | 94.2 | > 100 | > 100 | 73.8 | > 100 |  |  |  |  |  |  |  |  |  |  |
| O=S(=O)(OI(OI(OS(=O)(=O)C(F)(F)F)c1ccccc1)c1ccccc1)C(F)(F)F | > 100 | > 100 | > 100 | > 100 | > 100 | > 100 | > 100 |  | > 100 |  |  |  |  |  |  |  |  |  |  |
| COc1cc(OC)c(OC)cc1/C=N/NC(=O)N/N=C/c1cc(OC)c(OC)cc1OC | > 100 | 52.3 | > 100 |  |  | > 100 | > 100 |  | > 100 |  |  |  |  |  |  |  |  |  |  |
| COc1cc(C[P+](c2ccccc2)(c2ccccc2)c2ccccc2)cc(OC)c1OC | > 100 | > 100 | > 100 | > 100 | > 100 | > 100 | > 100 | > 100 | > 100 |  |  |  |  |  |  |  |  |  |  |
| C=C(CN(C)Cc1ccccc1)c1ccc(NC(=O)c2ccc(C(=C)CN(C)Cc3ccccc3)cc2)cc1 | > 100 | 32.2 | 80.1 | 36.9 | > 100 | > 100 | > 100 |  | 65.4 | 73.3 | 13.9 | > 100 | > 100 | 25.5 | 18.8 | 37.2 | > 100 | 68.8 | 25.6 |
| CCOC(=O)Nc1c(C)nc2ccccn12 | > 100 | > 100 | > 100 | > 100 | > 100 | > 100 | > 100 |  | > 100 | > 100 | > 100 | > 100 | > 100 | > 100 | > 100 | > 100 | > 100 | > 100 | > 100 |
| CCCCCCCCSC1=C(Cl)C(=O)C(OC)=C(OC)C1=O | 24.9 | 46.3 | 24.3 | 51.7 | 32.4 | 21.1 | 32.7 |  | 30 |  |  |  | 35.4 |  |  |  |  |  |  |
| CC[C@@H]1NC(C(=O)OC)Cc2c1[nH]c1ccccc21 (stereo not given in full) | > 100 | > 100 | > 100 |  | > 100 | > 100 | > 100 | > 100 | > 100 |  |  |  |  |  |  |  |  |  |  |
| CCOc1ccc(NC(=O)CC2SC(=Nc3ccc(C)cc3C)NC2=O)cc1 (stereo not given) | > 100 | > 100 | > 100 |  | > 100 | > 100 | 63.7 | > 100 | > 100 |  |  |  |  |  |  |  |  |  |  |
| O=Cc1cc2c(cc1-c1cc3c(cc1C=O)OCO3)OCO2 | > 100 | > 100 | > 100 | > 100 | > 100 | > 100 | > 100 | 71 | > 100 |  |  |  |  |  |  |  |  |  |  |
| Cc1cc2c(cc1C)[n+](=O)cc(C(=O)C/C(=N/NC(=S)NN)C(=O)Nc1cccc(C(F)(F)F)c1)n2[O-] | > 100 | > 100 | > 100 | > 100 | > 100 | > 100 | > 100 | > 100 | > 100 |  |  |  |  |  |  |  |  |  |  |
| O=C(c1ccc([N+](=O)[O-])cc1[N+](=O)[O-])N(/N=C/C=C/c1ccccc1)c1nnc(-c2ccccc2)c(-c2ccccc2)n1 | > 100 | 86.8 | > 100 | > 100 | > 100 | > 100 | 30.1 |  | 56 |  |  |  |  |  |  |  |  |  |  |
| NNc1ncnc2nc[nH]c12 | > 100 | > 100 | > 100 | 10.5 | > 58.1 | > 40.4 | > 100 |  | > 83.8 | 7.17 | 24.7 | 5.57 | > 100 | 28.7 | 2.25 | 7.48 | 3.18 | 21.2 | 3.03 |
| CC12c3ccccc3C(OC=O)(c3ccccc31)C1(C)c3ccccc3C2(OC=O)c2ccccc21 | > 100 | > 100 | > 100 | > 100 | > 100 | > 100 |  | 48.6 | > 100 |  |  |  |  |  |  |  |  |  |  |
| Cc1nc2c(N)ncnc2o1 | > 100 | > 100 | > 100 | > 100 | > 100 | > 100 | > 100 |  | > 100 |  |  |  |  |  |  |  |  |  |  |
| COC(=N)c1csc(C2OC(CO)C(O)C2O)n1 (stereo not given) | > 100 |  | > 100 | > 100 | > 100 | > 100 | > 100 |  | > 100 |  |  |  |  |  |  |  |  |  |  |
| COC(=O)c1c2c(c(C)[n+]([O-])c1C)C(=O)C(NCc1ccc(Br)cc1)=CC2=O |  | 6.79 |  | 7.07 | 4.83 |  | 4.75 |  | 11.2 |  | 2.2 | 1.55 | 2.96 |  | 2.38 | 1.88 |  | 2.13 | 3.13 |
| CCOc1ccc(OCC(=O)O)c2c1CCCC2=O | > 100 | > 100 | > 100 | > 100 | > 100 | > 100 | > 100 | > 100 | > 100 |  |  |  |  |  |  |  |  |  |  |
| Cc1nc2c(Br)cc(Br)cc2c(=O)n1-c1nnc(-c2cccc(Cl)c2Cl)c(N)n1 | > 100 | > 100 | > 100 | 28.2 | 41.3 | 74.5 | 60 |  | 48.2 | 22.1 | 33.6 | 3.8 | 14.3 | 42 | 7.08 | 17.6 | 26.6 | 21.6 | 18.4 |
| O=[N+]([O-])c1cccnc1N=Nc1c(O)[nH]c2ccccc12 | 66 | 44.3 | 58.5 | 60.7 |  | 49.2 | 12.7 |  | 52 |  |  |  | > 100 |  |  |  |  |  |  |
| O=C1C=C(Nc2ccc(Cl)cc2C(=O)c2ccccc2)c2ccccc2C1=O | > 100 | > 100 | > 100 | > 100 | > 100 | > 100 | > 100 |  | > 100 |  |  |  |  |  |  |  |  |  |  |
